Test [1] has as its target alpha-L-fucosidase (Bos taurus). The test is described as follows: Compound was tested for inhibitory activity against alpha-L-fucosidase from bovine epididymis.
For test [2] the target is unchanged. The experiment in a line: Compound was tested for inhibitory activity (competitive) against alpha-L-fucosidase from bovine kidney.
Test [3] shares this target. The test is described as follows: Compound was tested for inhibitory activity (mixed) against alpha-L-fucosidase from bovine kidney.

The Ki is the dissociation constant of the complex between target and ligand, obtained from inhibition or displacement. Take `C[C@@H]1O[C@@H](O)[C@@H](O)[C@H](O)[C@@H]1S` [(2R,3S,4S,5S,6S)-5-Mercapto-6-methyl-tetrahydro-pyran-2,3,4-triol]: the Ki turned out to be 84 µM in test [1] and 42 µM in test [2].
In the case of `NCC(O)C(=O)C(=O)C(N)CO` (stereo unspecified) [2,6-Diimino-hexane-1,3,4,5-tetraol], the Ki in test [1] stood at 11 µM; in test [2], 7 µM.
In the case of `CC1OC(SC2CC(O)C(O)OC2CO)C(O)C(O)C1O` [(2S,4S,5S)-2-((3S,5S)-5,6-Dihydroxy-2-hydroxymethyl-tetrahydro-pyran-3-ylsulfanyl)-6-methyl-tetrahydro-pyran-3,4,5-triol], the affinity in test [3] corresponds to a Ki of 4000 µM.
Compound `CC(=O)NC1CC(SC2OC(C)C(O)C(O)C2O)C(CO)OC1O` [N-[(3S,5S)-2-Hydroxy-6-hydroxymethyl-5-((2S,4S,5S)-3,4,5-trihydroxy-6-methyl-tetrahydro-pyran-2-ylsulfanyl)-tetrahydro-pyran-3-yl]-acetamide] yielded a Ki in test [3] of 2400 µM.

These data come from BindingDB's records for doi:10.1016/0960-894X(95)00377-6 (1995).
